ChEMBL document CHEMBL2346657, “Synthesis of novel 2-amino-4-(5'-substituted 2'-phenyl-1H-indol-3'-yl)-6-aryl-4H-pyran-3-carbonitrile derivatives as antimicrobial and antioxidant agents” (2013)
The source made the active and inactive calls. No rule for the calls is given here.

Experiments:
Format in all cases: functional
[1] = Antioxidant activity assessed as metal chelating activity by measuring inhibition of ferrozine-Fe2+ complex formation at 25 to 100 ug/ml
[2] = system: Aspergillus flavus; experiment: Antimicrobial activity against Aspergillus flavus MTCC 1973 at 500 ug/ml after 72 hrs by cup plate method; settings: MTCC 1973, 72 h, read-out: IZ
[3] = system: Aspergillus flavus; experiment: Antimicrobial activity against Aspergillus flavus MTCC 1973 at 750 ug/ml after 72 hrs by cup plate method; settings: MTCC 1973, 72 h, read-out: IZ
[4] = system: Aspergillus flavus; experiment: Antimicrobial activity against Aspergillus flavus MTCC 1973 at 1000 ug/ml after 72 hrs by cup plate method; settings: MTCC 1973, 72 h, read-out: IZ
[5] = system: Aspergillus terreus; experiment: Antimicrobial activity against Aspergillus terreus MTCC 1782 at 500 ug/ml after 72 hrs by cup plate method; settings: MTCC 1782, 72 h, read-out: IZ
[6] = system: Aspergillus terreus; experiment: Antimicrobial activity against Aspergillus terreus MTCC 1782 at 750 ug/ml after 72 hrs by cup plate method; settings: MTCC 1782, 72 h, read-out: IZ
[7] = system: Aspergillus terreus; experiment: Antimicrobial activity against Aspergillus terreus MTCC 1782 at 1000 ug/ml after 72 hrs by cup plate method; settings: MTCC 1782, 72 h, read-out: IZ
[8] = system: Aspergillus oryzae; experiment: Antimicrobial activity against Aspergillus oryzae MTCC 3567 at 500 ug/ml after 72 hrs by cup plate method; settings: MTCC 3567, 72 h, read-out: IZ
[9] = system: Aspergillus oryzae; experiment: Antimicrobial activity against Aspergillus oryzae MTCC 3567 at 750 ug/ml after 72 hrs by cup plate method; settings: MTCC 3567, 72 h, read-out: IZ
[10] = system: Aspergillus oryzae; experiment: Antimicrobial activity against Aspergillus oryzae MTCC 3567 at 1000 ug/ml after 72 hrs by cup plate method; settings: MTCC 3567, 72 h, read-out: IZ
[11] = system: Aspergillus niger; experiment: Antimicrobial activity against Aspergillus niger MTCC 281 at 500 ug/ml after 72 hrs by cup plate method; settings: MTCC 281, 72 h, read-out: IZ
[12] = system: Aspergillus niger; experiment: Antimicrobial activity against Aspergillus niger MTCC 281 at 750 ug/ml after 72 hrs by cup plate method; settings: MTCC 281, 72 h, read-out: IZ
[13] = system: Aspergillus niger; experiment: Antimicrobial activity against Aspergillus niger MTCC 281 at 1000 ug/ml after 72 hrs by cup plate method; settings: MTCC 281, 72 h, read-out: IZ
[14] = system: Pseudomonas aeruginosa; experiment: Antimicrobial activity against Pseudomonas aeruginosa MTCC 1688 at 500 ug/ml after 24 hrs by cup plate method; settings: MTCC 1688, 24 h, read-out: IZ
[15] = system: Pseudomonas aeruginosa; experiment: Antimicrobial activity against Pseudomonas aeruginosa MTCC 1688 at 750 ug/ml after 24 hrs by cup plate method; settings: MTCC 1688, 24 h, read-out: IZ
[16] = system: Pseudomonas aeruginosa; experiment: Antimicrobial activity against Pseudomonas aeruginosa MTCC 1688 at 1000 ug/ml after 24 hrs by cup plate method; settings: MTCC 1688, 24 h, read-out: IZ
[17] = system: Klebsiella pneumoniae; experiment: Antimicrobial activity against Klebsiella pneumoniae NCTC 13368 at 500 ug/ml after 24 hrs by cup plate method; settings: NCTC 13368, 24 h, read-out: IZ
[18] = system: Klebsiella pneumoniae; experiment: Antimicrobial activity against Klebsiella pneumoniae NCTC 13368 at 750 ug/ml after 24 hrs by cup plate method; settings: NCTC 13368, 24 h, read-out: IZ
[19] = system: Klebsiella pneumoniae; experiment: Antimicrobial activity against Klebsiella pneumoniae NCTC 13368 at 1000 ug/ml after 24 hrs by cup plate method; settings: NCTC 13368, 24 h, read-out: IZ
[20] = system: Staphylococcus aureus; experiment: Antimicrobial activity against Staphylococcus aureus ATCC 29513 at 500 ug/ml after 24 hrs by cup plate method; settings: ATCC 29513, 24 h, read-out: IZ
[21] = system: Staphylococcus aureus; experiment: Antimicrobial activity against Staphylococcus aureus ATCC 29513 at 750 ug/ml after 24 hrs by cup plate method; settings: ATCC 29513, 24 h, read-out: IZ
[22] = system: Staphylococcus aureus; experiment: Antimicrobial activity against Staphylococcus aureus ATCC 29513 at 1000 ug/ml after 24 hrs by cup plate method; settings: ATCC 29513, 24 h, read-out: IZ
[23] = system: Escherichia coli; experiment: Antimicrobial activity against Escherichia coli MTCC 723 at 500 ug/ml after 24 hrs by cup plate method; settings: MTCC 723, 24 h, read-out: IZ
[24] = system: Escherichia coli; experiment: Antimicrobial activity against Escherichia coli MTCC 723 at 750 ug/ml after 24 hrs by cup plate method; settings: MTCC 723, 24 h, read-out: IZ
[25] = system: Escherichia coli; experiment: Antimicrobial activity against Escherichia coli MTCC 723 at 1000 ug/ml after 24 hrs by cup plate method; settings: MTCC 723, 24 h, read-out: IZ

SMILES	Activity [1]	zone of inhibition at 500 µg/mL [2]	zone of inhibition at 750 µg/mL [3]	zone of inhibition at 1000 µg/mL [4]	zone of inhibition at 500 µg/mL [5]	zone of inhibition at 750 µg/mL [6]	zone of inhibition at 1000 µg/mL [7]	zone of inhibition at 500 µg/mL [8]	zone of inhibition at 750 µg/mL [9]	zone of inhibition at 1000 µg/mL [10]	zone of inhibition at 500 µg/mL [11]	zone of inhibition at 750 µg/mL [12]	zone of inhibition at 1000 µg/mL [13]	zone of inhibition at 500 µg/mL [14]	zone of inhibition at 750 µg/mL [15]	zone of inhibition at 1000 µg/mL [16]	zone of inhibition at 500 µg/mL [17]	zone of inhibition at 750 µg/mL [18]	zone of inhibition at 1000 µg/mL [19]	zone of inhibition at 500 µg/mL [20]	also measured
Cc1ccc(C2=CC(c3c(-c4ccccc4)[nH]c4ccc(C)cc34)c3c(N)nc(=O)[nH]c3O2)cc1 (stereo not given)	Active	2 mm	2 mm	2 mm	9 mm	9 mm	9 mm	0 mm	0 mm	0 mm	10 mm	10 mm	10 mm	10 mm	10 mm	10 mm	10 mm	10 mm	10 mm	8 mm	zone of inhibition at 750 µg/mL [21]: 5 mm; zone of inhibition at 1000 µg/mL [22]: 2 mm; zone of inhibition at 500 µg/mL [23]: 13 mm; zone of inhibition at 750 µg/mL [24]: 13 mm; zone of inhibition at 1000 µg/mL [25]: 14 mm
N#Cc1c(N)c2c(N)c3c(nc2oc1=O)OC(c1ccc(Cl)cc1)=CC3c1c(-c2ccccc2)[nH]c2ccccc12 (stereo not given)	Active	0 mm	0 mm	8 mm	10 mm	10 mm	11 mm	12 mm	13 mm	13 mm	7 mm	5 mm	5 mm	10 mm	9 mm	9 mm	13 mm	13 mm	13 mm	12 mm	zone of inhibition at 750 µg/mL [21]: 11 mm; zone of inhibition at 1000 µg/mL [22]: 12 mm; zone of inhibition at 500 µg/mL [23]: 3 mm; zone of inhibition at 750 µg/mL [24]: 3 mm; zone of inhibition at 1000 µg/mL [25]: 12 mm
O=c1[nH]cnc2c1C(c1c(-c3ccccc3)[nH]c3ccccc13)C=C(c1ccc(Cl)cc1)O2 (stereo not given)	Active	10 mm	9 mm	8 mm	6 mm	6 mm	5 mm	10 mm	10 mm	10 mm	8 mm	8 mm	8 mm	10 mm	10 mm	10 mm	9 mm	9 mm	10 mm	5 mm	zone of inhibition at 750 µg/mL [21]: 5 mm; zone of inhibition at 1000 µg/mL [22]: 5 mm; zone of inhibition at 500 µg/mL [23]: 9 mm; zone of inhibition at 750 µg/mL [24]: 9 mm; zone of inhibition at 1000 µg/mL [25]: 9 mm
